# Assay results: ChEMBL document CHEMBL5724914, “Linking interpersonal differences in gut microbiota composition and drug biotransformation activity” (2024)
# Experiment: (§1) The drug is tested on Z-025 corresponding to rabbit gut metagenome with ENA study accession number: PRJEB37062 and ENA sample accession number: ERS12561824 for biotransformation under anaerobic condition. The drug concentrations were measured over 9 timepoints collected between 0 and 24 hours of incubation by liquid-chromatography-coupled mass spectrometry (LC–MS)
# Conditions: 2 µM
# Note: call rule not given here.
row,Bacterial Biotransformation,Structure (SMILES)
1,Compound NOT metabolized,CCOc1ccc2nc(S(N)(=O)=O)sc2c1 [ETHOXZOLAMIDE]
2,Compound NOT metabolized,CCc1cccc2c3c([nH]c12)C(CC)(CC(=O)O)OCC3 (stereo not given) [ETODOLAC]

# Experiment: as §1, with “Z-023” for “Z-025”, “to” for “to rabbit gut”, “ERS12561822” for “ERS12561824”
# Conditions: 2 µM
row,Bacterial Biotransformation,Structure (SMILES)
1,Compound NOT metabolized,CCOc1ccc2nc(S(N)(=O)=O)sc2c1 [ETHOXZOLAMIDE]
2,Compound NOT metabolized,CCc1cccc2c3c([nH]c12)C(CC)(CC(=O)O)OCC3 (stereo not given) [ETODOLAC]

# Experiment: as §1, with “Z-022” for “Z-025”, “mouse” for “rabbit”, “ERS12561821” for “ERS12561824”
# Conditions: 2 µM
row,Bacterial Biotransformation,Structure (SMILES)
1,Compound NOT metabolized,CCOc1ccc2nc(S(N)(=O)=O)sc2c1 [ETHOXZOLAMIDE]
2,Compound NOT metabolized,CCc1cccc2c3c([nH]c12)C(CC)(CC(=O)O)OCC3 (stereo not given) [ETODOLAC]

# Experiment: as §1, with “Z-013” for “Z-025”, “ERS12561813” for “ERS12561824”
# Conditions: 2 µM
row,Bacterial Biotransformation,Structure (SMILES)
1,Compound NOT metabolized,CCOc1ccc2nc(S(N)(=O)=O)sc2c1 [ETHOXZOLAMIDE]
2,Compound NOT metabolized,CCc1cccc2c3c([nH]c12)C(CC)(CC(=O)O)OCC3 (stereo not given) [ETODOLAC]

# Experiment: as §1, with “Z-009” for “Z-025”, “pig” for “rabbit”, “ERS12561809” for “ERS12561824”
# Conditions: 2 µM
row,Bacterial Biotransformation,Structure (SMILES)
1,Compound NOT metabolized,CCOc1ccc2nc(S(N)(=O)=O)sc2c1 [ETHOXZOLAMIDE]
2,Compound NOT metabolized,CCc1cccc2c3c([nH]c12)C(CC)(CC(=O)O)OCC3 (stereo not given) [ETODOLAC]

# Experiment: as §1, with “Z-007” for “Z-025”, “rat” for “rabbit”, “ERS12561807” for “ERS12561824”
# Conditions: 2 µM
row,Bacterial Biotransformation,Structure (SMILES)
1,Compound NOT metabolized,CCOc1ccc2nc(S(N)(=O)=O)sc2c1 [ETHOXZOLAMIDE]
2,Compound NOT metabolized,CCc1cccc2c3c([nH]c12)C(CC)(CC(=O)O)OCC3 (stereo not given) [ETODOLAC]

# Experiment: as §1, with “Z-006” for “Z-025”, “mouse” for “rabbit”, “ERS12561806” for “ERS12561824”
# Conditions: 2 µM
row,Bacterial Biotransformation,Structure (SMILES)
1,Compound NOT metabolized,CCOc1ccc2nc(S(N)(=O)=O)sc2c1 [ETHOXZOLAMIDE]
2,Compound NOT metabolized,CCc1cccc2c3c([nH]c12)C(CC)(CC(=O)O)OCC3 (stereo not given) [ETODOLAC]

# Experiment: as §1, with “Z-004” for “Z-025”, “to” for “to rabbit gut”, “ERS12561804” for “ERS12561824”
# Conditions: 2 µM
row,Bacterial Biotransformation,Structure (SMILES)
1,Compound NOT metabolized,CCOc1ccc2nc(S(N)(=O)=O)sc2c1 [ETHOXZOLAMIDE]
2,Compound NOT metabolized,CCc1cccc2c3c([nH]c12)C(CC)(CC(=O)O)OCC3 (stereo not given) [ETODOLAC]

# Experiment: as §1, with “WLS-350” for “Z-025”, “human” for “rabbit”, “ERS12561789” for “ERS12561824”
# Conditions: 2 µM
row,Bacterial Biotransformation,Structure (SMILES)
1,Compound NOT metabolized,CCOc1ccc2nc(S(N)(=O)=O)sc2c1 [ETHOXZOLAMIDE]
2,Compound NOT metabolized,CCc1cccc2c3c([nH]c12)C(CC)(CC(=O)O)OCC3 (stereo not given) [ETODOLAC]

# Experiment: as §1, with “WLS-073” for “Z-025”, “human” for “rabbit”, “ERS12561749” for “ERS12561824”
# Conditions: 2 µM
row,Bacterial Biotransformation,Structure (SMILES)
1,Compound NOT metabolized,CCOc1ccc2nc(S(N)(=O)=O)sc2c1 [ETHOXZOLAMIDE]
2,Compound NOT metabolized,CCc1cccc2c3c([nH]c12)C(CC)(CC(=O)O)OCC3 (stereo not given) [ETODOLAC]

# Experiment: as §1, with “WLS-052” for “Z-025”, “human” for “rabbit”, “ERS12561747” for “ERS12561824”
# Conditions: 2 µM
row,Bacterial Biotransformation,Structure (SMILES)
1,Compound NOT metabolized,CCOc1ccc2nc(S(N)(=O)=O)sc2c1 [ETHOXZOLAMIDE]
2,Compound metabolized,CCc1cccc2c3c([nH]c12)C(CC)(CC(=O)O)OCC3 (stereo not given) [ETODOLAC]

# Experiment: as §1, with “WLS-010” for “Z-025”, “human” for “rabbit”, “ERS12561743” for “ERS12561824”
# Conditions: 2 µM
row,Bacterial Biotransformation,Structure (SMILES)
1,Compound NOT metabolized,CCOc1ccc2nc(S(N)(=O)=O)sc2c1 [ETHOXZOLAMIDE]
2,Compound metabolized,CCc1cccc2c3c([nH]c12)C(CC)(CC(=O)O)OCC3 (stereo not given) [ETODOLAC]

# Conditions: human gut metagenome, 24 h, 2 µM
row,Bacterial Biotransformation,Structure (SMILES)
1,Compound NOT metabolized,CCOc1ccc2nc(S(N)(=O)=O)sc2c1 [ETHOXZOLAMIDE]
2,Compound metabolized,CCc1cccc2c3c([nH]c12)C(CC)(CC(=O)O)OCC3 (stereo not given) [ETODOLAC]

# Conditions: human gut metagenome, 24 h, 2 µM
# Remark: another data set of the same source
row,Bacterial Biotransformation,Structure (SMILES)
1,Compound NOT metabolized,CCOc1ccc2nc(S(N)(=O)=O)sc2c1 [ETHOXZOLAMIDE]
2,Compound metabolized,CCc1cccc2c3c([nH]c12)C(CC)(CC(=O)O)OCC3 (stereo not given) [ETODOLAC]

# Conditions: human gut metagenome, 24 h, 2 µM
# Remark: another data set of the same source
row,Bacterial Biotransformation,Structure (SMILES)
1,Compound NOT metabolized,CCOc1ccc2nc(S(N)(=O)=O)sc2c1 [ETHOXZOLAMIDE]
2,Compound metabolized,CCc1cccc2c3c([nH]c12)C(CC)(CC(=O)O)OCC3 (stereo not given) [ETODOLAC]

# Conditions: human gut metagenome, 24 h, 2 µM
# Remark: another data set of the same source
row,Bacterial Biotransformation,Structure (SMILES)
1,Compound NOT metabolized,CCOc1ccc2nc(S(N)(=O)=O)sc2c1 [ETHOXZOLAMIDE]
2,Compound metabolized,CCc1cccc2c3c([nH]c12)C(CC)(CC(=O)O)OCC3 (stereo not given) [ETODOLAC]

# Conditions: human gut metagenome, 24 h, 2 µM
# Remark: another data set of the same source
row,Bacterial Biotransformation,Structure (SMILES)
1,Compound NOT metabolized,CCOc1ccc2nc(S(N)(=O)=O)sc2c1 [ETHOXZOLAMIDE]
2,Compound metabolized,CCc1cccc2c3c([nH]c12)C(CC)(CC(=O)O)OCC3 (stereo not given) [ETODOLAC]

# Conditions: human gut metagenome, 24 h, 2 µM
# Remark: another data set of the same source
row,Bacterial Biotransformation,Structure (SMILES)
1,Compound NOT metabolized,CCOc1ccc2nc(S(N)(=O)=O)sc2c1 [ETHOXZOLAMIDE]
2,Compound NOT metabolized,CCc1cccc2c3c([nH]c12)C(CC)(CC(=O)O)OCC3 (stereo not given) [ETODOLAC]

# Conditions: human gut metagenome, 24 h, 2 µM
# Remark: another data set of the same source
row,Bacterial Biotransformation,Structure (SMILES)
1,Compound NOT metabolized,CCOc1ccc2nc(S(N)(=O)=O)sc2c1 [ETHOXZOLAMIDE]
2,Compound NOT metabolized,CCc1cccc2c3c([nH]c12)C(CC)(CC(=O)O)OCC3 (stereo not given) [ETODOLAC]

# Conditions: human gut metagenome, 24 h, 2 µM
# Remark: another data set of the same source
row,Bacterial Biotransformation,Structure (SMILES)
1,Compound NOT metabolized,CCOc1ccc2nc(S(N)(=O)=O)sc2c1 [ETHOXZOLAMIDE]
2,Compound metabolized,CCc1cccc2c3c([nH]c12)C(CC)(CC(=O)O)OCC3 (stereo not given) [ETODOLAC]
